Where two headings read alike, the source gives them in different places.
What was measured:
[1] = tested on: CLP-induced systemic inflammation; test: CLP-induced systemic inflammation (plasma inflammatory cytokines); type: in vivo, mouse; details: male ICR mice, drug once before CLP, plasma 8 hours after CLP
Description: (§1) A mouse was anesthetized with pentobarbital (10 mg/kg, intraperitoneally) and a small abdominal midline incision was made to expose the cecum thereof. Subsequently, the cecum was ligated at approximately 2 cm with a silk thread and punctured twice with an 18 G needle (manufactured by Terumo Corporation). Then, the abdomen was closed.
Sham mice (sham operation group) were subjected to the same operation except the ligation and puncture of the cecum. […]
The levels of BUN and creatinine in blood were measured by using a DRI-CHEM slide and LabAssay creatinine, respectively, according to the protocols. The level of inflammatory cytokines in plasma was measured by an Elisa kit according to the protocol.
A CLP operation or a sham operation was performed on male ICR mice.
Drugs were administered once before the CLP operation or the sham operation. […] Sivelestat (mg/kg) was intraperitoneally administered. EBD (Evans blue dye) (30 mg/kg) was administered intravenously 8 hours after the CLP operation. Plasma samples were prepared and the level of inflammatory cytokines in plasma was measured.
A CLP operation or a sham operation was performed on a male ICR mouse. […] A plasma sample was prepared 8 hours after the CLP investigation and the levels of BUN and creatinine (Test A) and the level of inflammatory cytokines (Test B) were measured.
A CLP operation or a sham operation was performed on a male ICR mouse. NAC (mg/kg) was administered intraperitoneally or unmodified SOD (kU/kg) was administered intravenously, once before the CLP operation. A plasma sample was prepared 8 hours after the CLP operation and the levels of BUN and creatinine (Test A) and the level of inflammatory cytokines (Test B) were measured.

[2] = tested on: mice subjected to cecal ligation and puncture technique (CLP technique); details: male ICR mice
Description: as §1
(§2) Sham mice (sham operation group) were subjected to the same operation except the ligation and puncture of the cecum.

[3] = tested on: CLP-induced multiple organ failure; test: CLP-induced multiple organ failure (Evans blue vascular permeability, BUN, creatinine); type: in vivo, mouse; details: male ICR mice, drug once before CLP, plasma 8 hours after CLP
Description: as §1, §2
A mouse was anesthetized with isoflurane and 1 mg/kg LPS (in 0.9% NaCl) was administered thereto intratracheally once using a micropipette (P200). […]
For a quantitative examination of the permeability of an organ, Evans blue (EBD) (30 mg/kg) was administered to the mouse intravenously 2 hours before sacrificing the mouse. […] The specimens were centrifuged to obtain supernatants and the quantity of EBD was determined by using absorbance at 620 nm of the specimens.
The levels of BUN and creatinine in blood were measured by using a DRI-CHEM slide and LabAssay creatinine, respectively, according to the protocols. The level of inflammatory cytokines in plasma was measured by an Elisa kit according to the protocol. […]
Drugs were administered once before the CLP operation or the sham operation. […] Two hours later, EBD was extracted from the kidney and liver and measured. […]

[4] = tested on: lipopolysaccharide (LPS)-induced lung injury
Description: A mouse was anesthetized with isoflurane and 1 mg/kg LPS (in 0.9% NaCl) was administered thereto intratracheally once using a micropipette (P200). […] In the case of sivelestat, 10 or 100 mg/kg of sivelestat (in 0.9% NaCl) was administered intraperitoneally using a 21 G needle.
(§3) For a quantitative examination of the permeability of an organ, Evans blue (EBD) (30 mg/kg) was administered to the mouse intravenously 2 hours before sacrificing the mouse. Tissue (lung, liver, and kidney) specimens were cut into pieces and incubated with a […] for 24 hours at 60° C. The specimens were centrifuged to obtain supernatants and the quantity of EBD was determined by using absorbance at 620 nm of the specimens.
BALF was collected by inserting a cannula into a trachea and performing lavage twice with 1 mL of 50 U/mL heparin (in sterile 0.9% NaCl). Usually, about 1.8 mL of BALF was collected from each mouse. The amount of proteins in BALF was determined by a Bradford assay. The level of inflammatory cytokines was determined by the Elisa kit as described above.
A tissue specimen was fixed in 10% neutral buffered formalin for 24 hours and then embedded in paraffin before being cut into a section 4 μm thick. The section was stained firstly with Mayer's hematoxylin and secondly with 1% alcoholic eosin solution (H&E staining). The specimen was mounted with malinol (mounting medium) and scanned using a NanoZoomer-XR digital slide scanner (Hamamatsu Photonics K.K.).
All the scanned images were analyzed using NDP-view2 software (Hamamatsu Photonics K.K.) and Image J software.
LPS (1 mg/kg) or vehicle (control) was administered once into a trachea of a male ICR mouse.
ESD (Evans blue dye) (30 mg/kg) was injected intravenously 6 hours after a CLP operation. Two hours later, ESD was extracted from the lung and liver and the amount thereof was measured (Test A).
A section of the lung tissue was prepared 24 hours after the LPS administration and was subjected to a histopathological examination (H&E staining) (Test B). The lesion area was determined by ImageJ software (Test C). BALF was prepared 48 hours after the LPS administration and the levels of protein (Test D) and inflammatory cytokines (Test E) were determined.

[5] = tested on: mechanical ventilator (MV)-induced lung injury; test: Mechanical ventilator (MV)-induced lung injury and change of lung mechanics; type: in vivo, mouse; details: male ICR mice
Description: A mechanical ventilator for small animals was used to induce ventilator-induced lung injury (VILI). After a mouse was anesthetized with pentobarbital (10 mg/kg, intraperitoneally), tracheotomy was performed and an 8 mm metal tube was inserted into the trachea thereof. The mouse was mechanically ventilated with a tidal volume of 17.5 mL/kg, a positive end-expiratory pressure of 0 cm H2O, and a rate of 150 breaths/min.
Total respiratory elastance was measured every 30 minutes for 120 minutes by a snapshot technique.
The data were analyzed by using FlexiVent software (version 5.3 SCIREQ).
as §3
Firstly, the wet weight of a lung was measured to determine a wet-to-dry weight ratio of the lung. Then, the lung was dried at 60° C. overnight and reweighed to obtain the dry weight thereof.
A tissue specimen was fixed in 10% neutral buffered formalin for 24 hours and then embedded in paraffin before being cut into a section 4 μm thick. […]
All the scanned images were analyzed using NDP-view2 software (Hamamatsu Photonics K.K.) and Image J software. […]
EBD (Evans blue dye) (30 mg/kg) was simultaneously administered intravenously, extracted from the lung 2 hours after the MV treatment, and measured (Test A).
The wet-to-dry weight ratio of the lung was determined 2 hours after the MV treatment (Test B). […]
The lesion area was determined by ImageJ software (Test D).
Total respiratory elastance was measured every 30 minutes for 120 minutes (Test E). […]
The wet-to-dry weight ratio of the lung was determined 2 hours after the MV treatment (Tests A and C). Total respiratory elastance was measured every 30 minutes for 120 minutes (Tests B and D).

[6] = tested on: reactive oxygen species (ROS); test: In vivo imaging of reactive oxygen species (ROS), CLP model; design: species or system mouse; details: drug once before CLP, L-012 75 mg/kg 4 hours after the CLP operation
Description: In the case of the CLP model, the mouse was euthanized 2 minutes after injection of L-012, subjected to abdominal midline incision, and imaged (five-minute intervals).
Male ICR mice were subjected to a CLP operation. Dexamethasone (200 μg/mouse) was administered intravenously once before the CLP operation (Tests A and C). Sivelestat (100 mg/kg) was administered intraperitoneally (Tests B and D). […] The sum intensity of ROS was determined by SlideBook6 software (Tests C and D).

[7] = tested on: reactive oxygen species (ROS)
Description: Measurement of reactive oxygen species (ROS) in a mouse was performed by in vivo imaging analysis with some modifications.
An imaging system (Lumazone, in vivo imaging system, SHOSHIN EM, Okazaki, Japan) including a chamber equipped with an electron multiplying CCD camera was used. L-012 (in saline), which is a luminescent probe, was administered to the mouse intravenously at 75 mg/kg.
In the case of the LPS and MV models, the mouse was euthanized 5 minutes after injection of L-012, and the lung thereof was anatomized promptly and imaged (five-minute intervals).
The data were analyzed by using SlideBook6 software (Intelligent Imaging Innovations, Inc., Denver, CO).
CLP operation (Tests A and B), LPS administration (Tests C and D), and MV treatment (Tests E and F) were performed as described above. […] A luminescent probe (L-012) (75 mg/kg) was administered 4 hours after the CLP operation, 6 hours after the LPS administration, and 2 hours after the MV treatment. An abdominal cavity (Test A) or a lung (Tests C and E) of the mouse was imaged using a Lumazone in vivo imaging system. The sum intensity of reactive oxygen species (ROS) was determined by Slide Book6 software (Tests B, D, and F).

[8] = BALF 48 hours after the LPS administration (FIG. 4E)

Compound	IL-6 level in plasma [1]	TNF-α level in plasma [1]	survival rate ([2]; administration 1, 12, 24, and 48 hours after the CLP operation (FIG. 1B))	survival rate ([2]; administration immediately before the CLP operation and 12, 24, and 48 hours after (FIG. 1A))	BUN (blood urea nitrogen) level [3]	creatinine level [3]	protein in BALF ([4]; BALF 48 hours after the LPS administration (FIG. 4D))	IL-6 in BALF [4, 8]	IL-10 in BALF [4, 8]	TNF-α in BALF [4, 8]	histopathological examination of lung tissue (H&E staining) ([4]; lung section 24 hours after the LPS administration (FIG. 4B))	lesion area of lung (ImageJ) ([4]; lung section 24 hours after the LPS administration (FIG. 4C))	lung edema (wet-to-dry weight ratio of the lung) ([5]; drug once immediately before MV, 2 hours after the MV treatment)	lung injury (histopathological examination, H&E staining; lesion area) ([5]; lung section 2 hours after the MV treatment (FIG. 5C, D))	lung elastance (total respiratory elastance) ([5]; measured every 30 minutes for 120 minutes)	reactive oxygen species in the abdominal cavity (sum intensity, L-012) [6]	reactive oxygen species in the lung (sum intensity, L-012) ([7]; LPS, PC-SOD i.v. once before LPS, L-012 6 hours after the LPS administration)	reactive oxygen species in the lung (sum intensity, L-012) ([7]; MV, PC-SOD i.v. once before MV, L-012 2 hours after the MV treatment)
CC(C)(C)C(=O)Oc1ccc(S(=O)(=O)Nc2ccccc2C(=O)NCC(=O)O)cc1 [sivelestat, sivelestat sodium hydrate, reference compound]	failed in suppressing an increase	failed in suppressing an increase	–	–	–	–	–	–	–	–	–	–	–	–	–	–	–	–
lecithinized superoxide dismutase [PC-SOD]	suppressed an increase	suppressed an increase	increased the survival rate	increased the survival rate in a dose-dependent manner	suppressed an increase	suppressed an increase	suppressed an increase of protein	suppressed an increase	suppressed an increase	suppressed an increase	suppressed alveolar hemorrhage, leukocyte infiltration, and lung interstitial edema	reduced a lung disorder area	suppressed lung edema	suppressed lung injury	suppressed an increase in lung elastance	suppressed an increase of reactive oxygen species	suppressed an increase of reactive oxygen species	suppressed an increase of reactive oxygen species

Source: US12385017B2, “Acute respiratory distress syndrome therapeutic agent” (LTT Bio-Pharma Co., Ltd., priority 2015, dated 2025)
